According to PubChem BioAssay (NCI):
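Method: 48-hour compound exposure of cells in 96-well plates, five concentrations, linear interpolation of endpoints. Abbreviation: GI50, concentration required for 50% inhibition of growth. TGI: concentration producing complete growth inhibition.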

Key:
Assay in all cases: growth of human tumour cells (NCI), 48 h
DU-145 prostate = system: DU-145 prostate
HCT-15 colon = system: HCT-15 colon
MDA-MB-231 breast = system: MDA-MB-231 breast
SN12C renal = system: SN12C renal
OVCAR-8 ovarian = system: OVCAR-8 ovarian
NCI-H522 lung = system: NCI-H522 lung
A549 NSCLC = system: A549 NSCLC
NCI-H23 lung = system: NCI-H23 lung
SF-268 CNS = system: SF-268 CNS
SK-MEL-28 melanoma = system: SK-MEL-28 melanoma

SMILES	TGI (DU-145 prostate) [µM]	TGI (HCT-15 colon) [µM]	TGI (MDA-MB-231 breast) [µM]	TGI (SN12C renal) [µM]	TGI (OVCAR-8 ovarian) [µM]	TGI (NCI-H522 lung) [µM]	TGI (A549 NSCLC) [µM]	TGI (NCI-H23 lung) [µM]	TGI (SF-268 CNS) [µM]	TGI (SK-MEL-28 melanoma) [µM]	GI50 (DU-145 prostate) [µM]	GI50 (HCT-15 colon) [µM]
Nc1ccc(S(=O)(=O)Nc2nc3ccccc3nc2N2CCCCCC2)cc1	> 100	95.5	> 100	44.9	> 100	> 100	> 100	47.7	> 100	39.4	–	–
CN1CC2=C(NC(=S)NC2c2ccccc2)/C(=C/c2ccccc2)C1 (stereo not drawn)	> 100	> 100	> 10	> 100	> 10	> 100	> 100	> 100	> 100	94.3	–	–
Cc1cc(C)c2c(c1)C(=O)/C(=C/c1ccccc1C(=O)O)C2	> 100	> 100	> 100	> 100	> 100	> 100	> 100	–	> 100	> 100	–	–
COc1ccc(C(=O)CC(c2ccccc2)[C@H]2C(c3ccc(OC)cc3)=Nc3c(nc(SC)n(C)c3=O)NC2c2ccccc2)cc1 (stereo partly drawn)	> 100	> 100	> 100	> 100	–	> 100	> 100	> 100	> 100	> 100	–	–
COc1ccc(-c2oc3cc(O)cc(O)c3c(=O)c2OC)cc1	> 100	> 100	> 100	–	> 100	9.7	> 100	–	78.2	> 100	–	–
CCN=C1C=CC(=C(c2ccc(N(CC)CC)cc2)c2ccc(N(CC)CC)cc2)c2ccccc21	1.37	1.21	–	–	–	–	–	–	–	–	0.0492	0.299
c1ccc(CN2CCC(Nc3ccccc3)(c3nnnn3Cc3ccccc3)CC2)cc1	> 100	97.9	88.9	> 100	> 100	–	> 100	> 100	> 100	36.5	–	–
C=CCC1C(O[Si](C)(C)C(C)(C)C)C(CO[Si](C)(C)C(C)(C)C)OC1n1ccc(=O)[nH]c1=O (stereo not drawn)	4.54	2.64	4.52	2.8	3.41	–	2.91	2.8	–	3.05	–	–
CC(C)(C)OC(=O)NCC(CNC(=O)OC(C)(C)C)c1nc(C(N)=O)cs1	–	> 100	> 100	> 100	> 100	–	> 100	> 100	–	> 100	–	–
O=C1CC(=O)n2cnc3cccc(c32)N1	> 100	> 100	> 100	> 100	> 100	–	> 100	> 100	> 100	> 100	–	–
CCCSc1ccc2[nH]c(N3C(=O)/C(=C/c4ccccc4)N=C3c3ccccc3)cc2c1	> 50	> 50	–	> 50	> 50	36	> 50	> 50	> 50	> 50	–	–
O=C(Cc1ccc(Cl)c(Cl)c1)NCC1(N2CCCCC2)CCCCC1	> 100	> 100	> 100	> 100	> 100	> 100	> 100	> 100	> 100	–	–	–
CCOP(=O)(O)CN1CCNCCN(CP(=O)(O)OCC)CCNCC1	> 100	> 100	> 100	> 100	> 100	> 100	> 100	–	–	> 100	–	–
C=CCP(=O)(CC=C)C(Cl)Cl	> 100	> 100	> 100	> 100	> 100	> 100	> 100	> 100	–	> 100	–	–
NCc1cccc(O)c1O	–	> 100	–	> 100	> 100	> 100	> 100	–	> 100	> 100	–	–
Cn1c(-c2ccc(/C=N/NC(=S)N/N=C/c3ccc(-c4c[n+]5ccsc5n4C)cc3)cc2)c[n+]2ccsc12	–	> 100	> 100	> 100	> 100	> 100	> 100	–	> 100	> 100	–	–
COc1cc2cc(C(=O)N3CC(COS(C)(=O)=O)c4ccc(O)cc43)[nH]c2c(OC)c1OC (stereo not drawn)	0.000845	0.000858	0.000328	0.0165	0.149	< 0.0001	–	0.00286	–	–	–	–
CC(C)(C)n1c(=O)[nH]c(=O)n1C(C)(C)C	–	> 100	> 100	> 100	> 100	–	> 100	> 100	–	> 100	–	–
COc1cc(C2C(Cl)C(=O)N2c2c(C)n(C)n(-c3ccccc3)c2=O)ccc1O (stereo not drawn)	> 100	–	49.1	37.9	43.9	31	61.9	34.2	75.5	–	–	–
Cc1ccccc1-c1nc2c(C(=O)NCCN(C)C)cccc2[nH]1	–	> 100	–	> 100	> 100	> 100	> 100	> 100	> 100	> 100	–	–
O=C(N/N=C/C=C/c1ccccc1)c1ccccc1Nc1ccccc1C(=O)N/N=C/C=C/c1ccccc1	> 100	> 100	> 100	> 100	> 100	–	> 100	> 100	> 100	> 100	–	–
CC(C)/C(Cl)=N\OC(NC(=O)P(=O)(c1ccccc1)c1ccccc1)(C(F)(F)F)C(F)(F)F	72	37.8	34.4	26.6	32	–	42.8	23.8	31.9	28.2	–	–
CC(C)=CCNc1nc(Cl)nc2nc[nH]c12	> 100	–	68.2	> 100	> 100	> 100	> 100	> 100	> 100	> 100	–	–
C/C(=N\NC(=S)N(C)C)c1cccnn1	> 100	> 100	> 100	> 100	> 100	> 100	–	> 28.2	–	> 100	–	–
